Test systems include HCT-116 colon; HOP-92 NSCLC; LOX IMVI melanoma; NCI-H226 lung; OVCAR-4 ovarian; OVCAR-8 ovarian; SF-268 CNS; SF-539 CNS; UO-31 renal; CAKI-1 renal.
What all share (assay): DTP human tumour cell line panel, 48 h

Among the data in PubChem BioAssay (NCI) are GI50 and TGI values, retold here.

Molecules are shown by their SMILES.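 Test compounds were applied to cells in 96-well plates for 48 hours at 5 doses. GI50 = concentration required for 50% inhibition of growth. TGI: concentration producing complete growth inhibition.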 A value given as a limit tells only on which side of the number the result lay.

In the case of `CC[N+](CC)=c1sc2c(s1)C(c1ccc(Cl)cc1)Oc1ccc(Cl)cc1-2` (stereo not drawn), the GI50 in the assay with HCT-116 colon was 0.568 µM; with HOP-92 NSCLC it was 2.4 µM; in the assay with LOX IMVI melanoma, 1.51 µM; with NCI-H226 lung, 5.56 µM; in the assay with OVCAR-4 ovarian, 3.03 µM; in the assay on OVCAR-8 ovarian, 1.97 µM. Also, the GI50 in the assay with SF-268 CNS was 0.461 µM; in the assay on SF-539 CNS, 1.46 µM; in the assay on UO-31 renal it was 2.82 µM. Besides, the concentration for total growth inhibition (TGI) with HCT-116 colon is 1.89 µM; in the assay with HOP-92 NSCLC, 5.66 µM; in the assay with LOX IMVI melanoma, 3.22 µM; with NCI-H226 lung it was 33.1 µM; in the assay with OVCAR-4 ovarian, 12.7 µM; in the assay on OVCAR-8 ovarian, 5.41 µM. The total growth inhibition concentration (TGI) with SF-268 CNS is 2.08 µM; in the assay with SF-539 CNS, 2.97 µM; in the assay with UO-31 renal it was 15.4 µM.
Take `Cc1ccc(-c2csc(/N=C3\C(=O)Nc4ccccc43)n2)cc1`: the GI50 is 1.35 µM with HCT-116 colon; 1.24 µM in the assay with HOP-92 NSCLC; 1.28 µM with LOX IMVI melanoma; 1.78 µM with NCI-H226 lung; 1.75 µM in the assay on OVCAR-4 ovarian; 2.47 µM in the assay with OVCAR-8 ovarian. Further, the GI50 is 1.52 µM in the assay on SF-268 CNS, 1.71 µM with SF-539 CNS and 1.96 µM in the assay on UO-31 renal. The TGI in the assay with HCT-116 colon stood at 2.79 µM; in the assay with HOP-92 NSCLC it was 3.29 µM; with LOX IMVI melanoma, 2.8 µM; in the assay on NCI-H226 lung, 3.71 µM; in the assay on OVCAR-4 ovarian it was 6.48 µM; in the assay on OVCAR-8 ovarian, 6.9 µM. Moreover, the total growth inhibition concentration (TGI) is 3.5 µM with SF-268 CNS, 3.45 µM with SF-539 CNS and 22.4 µM in the assay on UO-31 renal.
With `COc1cccc(-c2nc3sccn3c2-c2ccnc(NCCCNS(=O)(=O)c3cccc(F)c3)c2)c1`, the GI50 in the assay with HCT-116 colon is 2.83 µM; with HOP-92 NSCLC, 1.52 µM; with LOX IMVI melanoma, 2.63 µM; in the assay on NCI-H226 lung, 2.38 µM; with OVCAR-8 ovarian, 2.42 µM; with SF-268 CNS it was 3.26 µM. Also, the GI50 in the assay with SF-539 CNS is 3.87 µM; with UO-31 renal, 1.25 µM. The total growth inhibition concentration (TGI) with HCT-116 colon is greater than 100 µM; in the assay with HOP-92 NSCLC it was greater than 100 µM; in the assay on LOX IMVI melanoma, 14.8 µM; in the assay on NCI-H226 lung it was 8.38 µM; with OVCAR-8 ovarian, 18.9 µM; in the assay with SF-268 CNS, greater than 100 µM. Also, the TGI in the assay with SF-539 CNS is greater than 100 µM; in the assay with UO-31 renal, 5.37 µM.
As for `COCCCNC(=O)C1C(=O)N(CCCOC)C(=O)/C1=N\N` (stereo not drawn), the TGI in the assay on HCT-116 colon, in the assay on HOP-92 NSCLC, in the assay on OVCAR-4 ovarian, in the assay on OVCAR-8 ovarian, in the assay with SF-268 CNS and in the assay with SF-539 CNS was greater than 100 µM each time. The concentration for total growth inhibition (TGI) in the assay on UO-31 renal is greater than 100 µM.
In the case of `Cn1cc(C2=C(c3cn(CCCCN)c4ccccc34)C(=O)NC2=O)c2ccccc21`, the GI50 in the assay on CAKI-1 renal, in the assay on HCT-116 colon, in the assay on LOX IMVI melanoma, with NCI-H226 lung, in the assay with OVCAR-4 ovarian and in the assay with OVCAR-8 ovarian was greater than 25 µM each time. For the same molecule, the GI50 with SF-268 CNS, in the assay on SF-539 CNS and in the assay on UO-31 renal was greater than 25 µM throughout. In addition, the TGI in the assay on CAKI-1 renal, in the assay on HCT-116 colon, in the assay on LOX IMVI melanoma, with NCI-H226 lung, with OVCAR-4 ovarian and with OVCAR-8 ovarian was greater than 25 µM each time. Further, the TGI in the assay with SF-268 CNS, in the assay on SF-539 CNS and in the assay on UO-31 renal was greater than 25 µM throughout.
On to `Oc1[nH]c2ccccc2c1N=Nc1ccccn1`, for which the TGI with CAKI-1 renal was greater than 100 µM; with HCT-116 colon, 25.2 µM; with LOX IMVI melanoma, greater than 100 µM; in the assay with NCI-H226 lung it was 61.7 µM; in the assay with OVCAR-4 ovarian it was 45.6 µM; with OVCAR-8 ovarian it was 26.3 µM. For the same molecule, the results for the concentration for total growth inhibition (TGI) with SF-268 CNS and in the assay on UO-31 renal were greater than 100 µM and 33.7 µM, respectively.
As for `Nc1ccccc1C(=O)CC1OC(=O)c2ccccc21` (stereo not drawn), the TGI in the assay with HCT-116 colon, with HOP-92 NSCLC, in the assay with LOX IMVI melanoma, in the assay on NCI-H226 lung, with OVCAR-4 ovarian and with OVCAR-8 ovarian was greater than 100 µM in each case. The TGI with SF-268 CNS, in the assay with SF-539 CNS and in the assay on UO-31 renal was greater than 100 µM in each case.
For `C=C1C(=O)O[C@H]2C[C@@H]1CC/C(C)=C/CC/C(C)=C/CC[C@H]2C`, the GI50 with CAKI-1 renal was 17 µM; in the assay with HCT-116 colon, 7.82 µM; in the assay with LOX IMVI melanoma, 5.56 µM; in the assay with OVCAR-8 ovarian, 15.7 µM; in the assay on SF-268 CNS, 19.3 µM; in the assay on SF-539 CNS, 15.7 µM. Further, the GI50 with UO-31 renal is 1.12 µM. Moreover, the TGI worked out at 33.6 µM in the assay with CAKI-1 renal; 21.3 µM in the assay with HCT-116 colon; 12.3 µM in the assay on LOX IMVI melanoma; 39.3 µM with OVCAR-8 ovarian; 46.1 µM in the assay on SF-268 CNS; 33.6 µM in the assay on SF-539 CNS. Further, in the assay with UO-31 renal, the TGI was 4.02 µM.
For `CCC[CH2][Sn]([CH2]CCC)([CH2]CCC)[O]c1ccc(Cl)cc1Cl`, the 50% growth inhibitory concentration (GI50) was 0.0878 µM with CAKI-1 renal; 0.0952 µM in the assay with HCT-116 colon; 0.0733 µM in the assay with HOP-92 NSCLC; 0.111 µM in the assay on LOX IMVI melanoma; 0.114 µM in the assay on OVCAR-4 ovarian; 0.163 µM with OVCAR-8 ovarian. The GI50 with SF-268 CNS is 0.128 µM; in the assay with SF-539 CNS, 0.179 µM; with UO-31 renal it was 0.0572 µM. The TGI in the assay on CAKI-1 renal is 0.258 µM; in the assay with HCT-116 colon, 0.231 µM; in the assay with HOP-92 NSCLC it was 0.384 µM; with LOX IMVI melanoma, 0.253 µM; in the assay with OVCAR-4 ovarian, 0.236 µM; in the assay with OVCAR-8 ovarian, 0.354 µM. In addition, the TGI in the assay with SF-268 CNS was found to be 0.301 µM; in the assay on SF-539 CNS, 0.372 µM; in the assay on UO-31 renal, 0.203 µM.
On to `c1cc(N(CCn2cccn2)CCn2cccn2)cc(N(CCn2cccn2)CCn2cccn2)c1`, for which the TGI with CAKI-1 renal, in the assay with HCT-116 colon, in the assay with HOP-92 NSCLC, with LOX IMVI melanoma, in the assay on OVCAR-4 ovarian and in the assay with OVCAR-8 ovarian was greater than 100 µM each time. Moreover, the TGI in the assay with SF-268 CNS and in the assay on UO-31 renal was greater than 100 µM each time.
Regarding `C=C(COC(C)=O)CC(OC(C)=O)c1ccccc1` (stereo not drawn), the TGI in the assay with HCT-116 colon, in the assay with HOP-92 NSCLC, in the assay with LOX IMVI melanoma, with NCI-H226 lung, with OVCAR-4 ovarian and in the assay on OVCAR-8 ovarian was greater than 100 µM throughout. Also, the TGI in the assay with SF-268 CNS, in the assay with SF-539 CNS and in the assay on UO-31 renal was greater than 100 µM throughout.

The GI50 is the concentration at which growth is held to half of that of the control. Broadly, the TGI is the concentration giving total growth inhibition.
